According to patent US20230149507A1, “TREATMENT OF ALT CANCERS” (INSTITUTO DE MEDICINA MOLECULAR JOÃO LOBO ANTUNES, priority 2019, published 2023):

Tests used:
U-2 OS cells [1] = assay: Metaphase-TIFs in cells overexpressing FANCM variants; assay type: cell-based, human; details: stable overexpression
Excerpt: (§1) (a) Schematic of FANCM domain interactions, mutations or deletions. For clarity, domains have been color coded by functional role (bottom panel). (b) Quantitation of metaphase-TIFs in U-2 OS cells stably overexpressing wild-type (FANCM+) or FANCM mutants. Scatterplot bars represent the mean±SEM. Out of 3 experiments, n≥110 metaphases scored for each mutant, *p<0.05, **p<0.005, Mann-Whitney test. (c) Quantitation of fragile telomeres in U-2 OS cells stably overexpressing wild-type (FANCM+) or FANCM mutants. Scatterplot bars represent the mean±SEM. Out of 3 experiments, n>100 metaphases scored for each mutant, *p<0.05, **p<0.005, Mann-Whitney test. (d) Representative dot blots and quantitation of C-circle assays in U-2 OS cells stably overexpressing wild-type (FANCM+) or FANCM domain mutants. C-circles were normalized to the mean of vector control. Error bars represent mean±SEM from n=3 experiments, *p<0.05, **p<0.005, Student's t-test. (e) Single molecule analysis of telomeric extension events (top panel) and length of extension events (bottom panel) in U-2 OS cells stably overexpressing wild-type (FANCM+) or FANCM domain mutants. Error bars represent mean±SEM of n≥350 fibers out of 3 experiments, *p<0.05, **p<0.005, Student's t-test.
(§2) FIG. 23. Defects in ALT phenotype suppression are exacerbated by overexpression of a double-mutant (DM) FANCM, in which both the MM2 domain (FF>AA) and the translocase domain (K117R) of FANCM are mutated. (a) Representative dot blots and quantitation of C-circle assays in U-2 OS cells stably overexpressing wild-type (WT) or FANCM domain mutants (K117R, FF>AA; DM). C-circles were normalized to the mean of empty vector control (EV). Error bars represent mean±SEM from n=3 experiments, *p<0.05, **p<0.005, Student's t-test. (b) Quantitation of APB frequency in U-2 OS cells overexpressing wild-type (WT) or FANCM mutants. Scatterplot bars represent the mean±SEM. Out of three experiments, n=150 cells were scored for each mutant, **p<0.005, Mann-Whitney test. (c) Quantitation of metaphase-TIFs in U-2 OS cells stably overexpressing wild-type (WT) or FANCM mutants. Scatterplot bars represent the mean±SEM. Out of three experiments, n=120 metaphases scored for each mutant, *p<0.05, **p<0.005, Mann-Whitney test. All statistical comparisons are relative to EV control.
(§3) Empty vector and wild-type FANCM (pCMV6-Myc-DDK) constructs were obtained from Origene Technologies. Wild type FANCM (SEQ ID NO: 2) and FANCM mutants (SEQ ID NOs: 19 to 28) were cloned into the pLenti-C-Myc-DDK-IRES-Neo backbone (Origene Technologies) by restriction enzyme subcloning of gene blocks synthesized by Integrated DNA Technologies (IDT). Lentivirus was produced by the Vector and Genome Engineering Facility (Children's Medical Research Institute). For stable overexpression, cells were transduced with lentivirus, allowed to recover for 24 h, and subject to G418 selection. Cells were maintained in G418 to ensure sustained overexpression.
Indirect IF and telomere FISH were performed on both interphase nuclei and metaphase spreads. For interphase IF experiments, cells were grown on coverslips or LabTek chamber slides (Thermo Scientific). Slides were prepared as described in Sobinoff et al., 2017. Cells on coverslips were washed twice with PBS, permeabilized with KCM buffer (120 mM KCl, 20 mM NaCl, 10 mM Tris pH 7.5, 0.1% Triton), washed again with PBST and PBS, then fixed with ice-cold 4% formaldehyde PBS solution at room temperature for 10 min. […]

U-2 OS cells [2] = assay: C-circle assay in cells overexpressing FANCM variants; assay type: cell-based, human; details: stable overexpression, compared to vector control
Excerpt: as §1, §2, §3
C-circles were amplified with Phi29 polymerase using dATP, dTTP and dGTP overnight. Products were dot blotted onto Biodyne B membranes (Pall) and pre-hybridised in PerfectHyb Plus (Sigma) for at least 30 min. Radiolabeled telomeric C-probe was then added and blots were hybridized overnight at 37° C. (Henson et al., 2009). Blots were washed with 0.5×SSC, 0.1% SDS three times for 5 min each then exposed to phosphor screen. Imaging was performed on the Typhoon FLA 7000 system (GE Healthcare) with a PMT of 750 V.

Substance | telomere dysfunction (metaphase-TIFs) (U-2 OS cells [1]) | C-circle levels (U-2 OS cells [2])
FF>AA: FANCM mutant (SEQ ID NO: 25), double substitution F1232A/F1236A within the MM2 domain | significantly increased | approximate two-fold increase in C-circles
K117R: FANCM mutant (SEQ ID NO: 20) substituted at K117R, DEAH domain disrupted | failed to suppress the phenotypes | did not cause a change in C-circle levels
